Test results as given in patent US20250177469A1, “SANGUISORBA OFFICINALIS LINNE EXTRACT COMPOSITION INHIBITING 3CL PROTEASE AND RDRP ACTIVITY OF SARS-COV-2” (QGENETICS CO., LTD., priority 2021, published 2025).

System: SARS-CoV-2
Assay: CPE inhibition of SARS-CoV-2 in VERO-E6 cells
Format: cell-based
Conditions: 200 TCID50, 3 days, average of three repeats, FIG. 4

Row | Compound | average CPE inhibition value
1 | CC(C)C[C@H](NC(=O)OCc1ccccc1)C(=O)N[C@@H](C[C@@H]1CCNC1=O)C(O)S(=O)(=O)[O-].[Na+] (some centres unmarked) [GC376] | 3.125 µg/mL
2 | CCC(CC)COC(=O)[C@H](C)N[P@](=O)(OC[C@H]1O[C@@](C#N)(c2ccc3c(N)ncnn23)[C@H](O)[C@@H]1O)Oc1ccccc1 [remdesivir] | 8.333 µg/mL
